Experimental data reported in patent publication US20260337153A1, “IONIZABLE AMINE LIPIDS” (Intellia Therapeutics, Inc., priority 2023, published 2026).

How the values were obtained:
[1] = pKa of unformulated amine lipid by TNS fluorescence; assay type: physicochemical; conditions: read-out: pKa
How it was run: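 Unformulated amine lipid was diluted from ethanol stock to approx. 100 μM in 0.1 M sodium phosphate buffers spanning pH 4.5–9.0 with TNS. Fluorescence read at ex 321/em 448 nm; normalized data fitted sigmoidally to give pKa.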

[2] = LNP encapsulation efficiency of RNA (Ribogreen fluorescence assay); assay type: physicochemical; conditions: LNP with 50% ionizable lipid, 38% cholesterol, 9% DSPC, 3% C13 Ether (LNP #1, Compound 53: 3% PEG2K-DMG instead); sgRNA:mRNA 1:2
How it was run: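 RiboGreen fluorescence (ex 488/em 525 nm) measured total RNA in 1×TE with 0.2% Triton X-100 and free RNA in 1×TE alone, against standard curves of the starting RNA; encapsulation = (total − free)/total. Total RNA alternatively quantified after Triton disruption by RP-IP HPLC, UV 260 nm.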

pKa [1] | % E (encapsulation efficiency) [2] | Compound
6.2 | 99% | CCCCCCCCC(CCCCCCCC)OC(=O)CCCCCCC(=O)OCC(CC)(COC(=O)CCCCCCC(=O)OC(CCCCCCCC)CCCCCCCC)COC(=O)OCCCN1CCCC1 [Compound 67, O′1,O1-(2-ethyl-2-((((3-(pyrrolidin-1-yl)propoxy)carbonyl)oxy)methyl)propane-1,3-diyl) 8,8′-di(heptadecan-9-yl) di(octanedioate)]
6.4 | 99% | CCCCCCCCC(CCCCCCCC)OC(=O)CCCCC(=O)OCC(COC(=O)CCCCC(=O)OC(CCCCCCCC)CCCCCCCC)COC(=O)NCCN(CC)CC [Compound 68, O,O′-(2-((((2-(diethylamino)ethyl)carbamoyl)oxy)methyl)propane-1,3-diyl) di(heptadecan-9-yl) diadipate]

Further lines, the molecule ahead of its results:

Compound | pKa [1] | % E (encapsulation efficiency) [2]
CCCCCCCCC(CCCCCCCC)OC(=O)CCCCCC(=O)OCC(COC(=O)CCCCCC(=O)OC(CCCCCCCC)CCCCCCCC)COC(=O)OCCCN1CCCC1 [Compound 64, 7,7′-di(heptadecan-9-yl) O′1,O1-(2-((((3-(pyrrolidin-1-yl)propoxy)carbonyl)oxy)methyl)propane-1,3-diyl) di(heptanedioate)] | 6.4 | 99%
CCCCCCCCC(CCCCCCCC)OC(=O)CCCCCCC(=O)OCC(COC(=O)CCCCCCC(=O)OC(CCCCCCCC)CCCCCCCC)COC(=O)OCCCN1CCCC1 [Compound 65, 8,8′-di(heptadecan-9-yl) O′1,O1-(2-((((3-(pyrrolidin-1-yl)propoxy)carbonyl)oxy)methyl)propane-1,3-diyl) di(octanedioate)] | 6.4 | 99%
CCCCCCCCC(CCCCCCCC)OC(=O)CCCCCCC(=O)OCC(CC)(COC(=O)CCCCCCC(=O)OC(CCCCCCCC)CCCCCCCC)COC(=O)NCCN(CC)CC [Compound 66, O′1,O1-(2-((((2-(diethylamino)ethyl)carbamoyl)oxy)methyl)-2-ethylpropane-1,3-diyl) 8,8′-di(heptadecan-9-yl) di(octanedioate)] | 6.1 | 99%
